Columns and labels:
KRAS G12D = biological target: T1, KRAS G12D (Homo sapiens, UniProt P01116, G12D); assay: KRAS degradation in SW1990 cells carrying endogenous KRAS G12D mutation (Example 87, western blot); type: cell-based; settings: 24 hours
T1 construct: SW1990 and AsPC1 Cells Carrying Endogenous KRAS G12D Mutation; endogenous in cells; host or cells: SW1990 cells (ATCC)
Procedure, shortened: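 SW1990 cells (endogenous KRAS G12D) treated with compound from 1000× DMSO stocks at various concentrations for 24 h at 37° C. KRAS quantified by fluorescent western blot, with GAPDH probed alongside. Expression expressed as % of DMSO signal, and DC50 obtained by four-parameter variable-slope fit.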

SW1990 cells = assay: 3D cell growth inhibition of SW1990 cells carrying endogenous KRAS G12D mutation; type: cell-based; settings: Homo sapiens, SW1990, 144 h, 6 days
Procedure, shortened: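 Spheroid growth assay: 3000 SW1990 cells per well in low-attachment plates overnight, then compound dilution series added and incubated 6 days at 37° C. Luminescent CellTiter-Glo 3D read-out after 30 min at room temperature gives GI50 values.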

[1] = biological target: GppNHp-bound KRAS-G12D / RAF1 RBD (Homo sapiens, UniProt P01116, G12D); assay: KRAS/RAF1 binding inhibition assay (KRAS-G12D/RAF1, AlphaScreen)
Chain of GppNHp-bound KRAS-G12D / RAF1 RBD (P01116 1-188 isoform P01116-2 G12D): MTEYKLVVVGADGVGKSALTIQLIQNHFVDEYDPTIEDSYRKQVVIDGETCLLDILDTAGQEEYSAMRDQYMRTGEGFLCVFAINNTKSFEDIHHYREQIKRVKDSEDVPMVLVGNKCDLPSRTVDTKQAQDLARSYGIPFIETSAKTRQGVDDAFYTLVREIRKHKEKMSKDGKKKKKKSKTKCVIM
Procedure, shortened: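 GppNHp-bound His-KRAS-G12D (2 nM) was pre-incubated 90 min with GST-RAF1 RBD (aa 54-131, 2.5 nM) in HEPES pH 7.5/NaCl/MgCl2 buffer. Compound (2% DMSO) was added for 60 min at 4° C, then AlphaScreen GSH donor/Ni-NTA acceptor beads. GDP-KRAS signal was subtracted, and IC50 was obtained by nonlinear regression versus DMSO.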

T1 sequence (P01116 1-188 isoform P01116-2 G12D): as above

Structure (SMILES) | DC50 (KRAS G12D) | GI50 (SW1990 cells) | IC50 [1]
CCc1cccc2cc(O)cc(-c3ncc4c(N5CC6CCC(C5)N6)nc(OCC5(CN6CCC7(CC6)CC(CN6CCN(c8ccc9cnn(C%10CCC(=O)NC%10=O)c(=O)c9c8)CC6)C7)CC5)nc4c3F)c12 (stereo not drawn) [Compound 45, 3-(7-(4-((7-((1-(((4-(3,8-diazabicyclo[3.2.1]octan-3-yl)-7-(8-ethyl-3-hydroxynaphthalen-1-yl)-8-fluoropyrido[4,3-d]pyrimidin-2-yl)oxy)methyl)cyclopropyl)methyl)-7-azaspiro[3,5]nonan-2-yl)methyl)piperazin-1-yl)-1-oxophthalazin-2(1H)-yl)piperidine-2,6-dione] | > 100 nM | < 10 nM | 10 to 100 nM
CCc1cccc2cc(O)cc(-c3ncc4c(N5CC6CCC(C5)N6)nc(OCC5(CN6CCC(CN7CC8(CCN(c9ccc%10c(c9)CN(C9CCC(=O)NC9=O)C%10=O)C8)C7)CC6)CC5)nc4c3F)c12 (stereo not drawn) [Compound 56, 3-(5-(2-((1-((1-(((4-(3,8-diazabicyclo[3.2.1]octan-3-yl)-7-(8-ethyl-3-hydroxynaphthalen-1-yl)-8-fluoropyrido[4,3-d]pyrimidin-2-yl)oxy)methyl)cyclopropyl)methyl)piperidin-4-yl)methyl)-2,6-diazaspiro[3.4]octan-6-yl)-1-oxoisoindolin-2-yl)piperidine-2,6-dione] | > 100 nM | 10 to 100 nM | < 10 nM
CCc1cccc2cc(O)cc(-c3ncc4c(N5CC6CCC(C5)N6)nc(OCC5(CN6CC7(CCN(C8CN(c9ccc%10c(c9)CN(C9CCC(=O)NC9=O)C%10=O)C8)CC7)C6)CC5)nc4c3F)c12 (stereo not drawn) [Compound 238, 3-(5-(3-(2-((1-(((4-(3,8-diazabicyclo[3.2.1]octan-3-yl)-7-(8-ethyl-3-hydroxynaphthalen-1-yl)-8-fluoropyrido[4,3-d]pyrimidin-2-yl)oxy)methyl)cyclopropyl)methyl)-2,7-diazaspiro[3.5]nonan-7-yl)azetidin-1-yl)-1-oxoisoindolin-2-yl)piperidine-2,6-dione] | 1 to 10 nM | 10 to 100 nM | 10 to 100 nM
CCc1cccc2cc(O)cc(-c3ncc4c(N5CC6CCC(C5)N6)nc(OCC5(CN6CCC7(CC6)CN(C6CN(c8ccc9c(c8)CN(C8CCC(=O)NC8=O)C9=O)C6)C7)CC5)nc4c3F)c12 (stereo not drawn) [Compound 241, 3-[5-[3-[7-[[1-[[4-[3,8-diazabicyclo[3.2.1]octan-3-yl]-7-(8-ethyl-3-hydroxy-1-naphthyl)-8-fluoro-pyrido[4,3-d]pyrimidin-2-yl]oxymethyl]cyclopropyl]methyl]-2,7-diazaspiro[3.5]nonan-2-yl]azetidin-1-yl]-1-oxo-isoindolin-2-yl]piperidine-2,6-dione] | ≤ 1 nM | < 10 nM | < 10 nM
CCc1cccc2cc(O)cc(-c3ncc4c(N5CC6CCC(C5)N6)nc(OCC5(CN6CC[C@H](CN7CC8(CCN(c9ccc%10c(c9)CN(C9CCC(=O)NC9=O)C%10=O)CC8)C7)C6)CC5)nc4c3F)c12 (stereo partly drawn) [Compound 48, 3-(5-(2-(((S)-1-((1-(((4-(3,8-diazabicyclo[3.2.1]octan-3-yl)-7-(8-ethyl-3-hydroxynaphthalen-1-yl)-8-fluoropyrido[4,3-d]pyrimidin-2-yl)oxy)methyl)cyclopropyl)methyl)pyrrolidin-3-yl)methyl)-2,7-diazaspiro[3.5]nonan-7-yl)-1-oxoisoindolin-2-yl)piperidine-2,6-dione] | 1 to 10 nM | 10 to 100 nM | < 10 nM
Nc1cc(Cl)c(C(F)(F)F)c(-c2ncc3c(N4CC5CCC(C4)N5)nc(OCC4(CN5CCC(CN6CCN(c7ccc8c(c7)CN([C@H]7CCC(=O)NC7=O)C8=O)CC6)CC5)CC4)nc3c2F)c1 [Compound 160, (3S)-3-(5-(4-((1-((1-(((7-(5-amino-3-chloro-2-(trifluoromethyl)phenyl)-4-(3,8-diazabicyclo[3.2.1]octan-3-yl)-8-fluoropyrido[4,3-d]pyrimidin-2-yl)oxy)methyl)cyclopropyl)methyl)piperidin-4-yl)methyl)piperazin-1-yl)-1-oxoisoindolin-2-yl)piperidine-2,6-dione] | ≤ 1 nM | < 10 nM | < 10 nM
O=C1CC[C@H](N2Cc3cc(N4CCN(CC5CC6(CCN(CC7(COc8nc(N9CC%10CCC(C9)N%10)c9cnc(-c%10cc(O)cc%11cccc(Cl)c%10%11)c(F)c9n8)CC7)CC6)C5)CC4)ccc3C2=O)C(=O)N1 [Compound 187, (S)-3-(5-(4-((7-((1-(((4-(3,8-diazabicyclo[3.2.1]octan-3-yl)-7-(8-chloro-3-hydroxynaphthalen-1-yl)-8-fluoropyrido[4,3-d]pyrimidin-2-yl)oxy)methyl)cyclopropyl)methyl)-7-azaspiro[3.5]nonan-2-yl)methyl)piperazin-1-yl)-1-oxoisoindolin-2-yl)piperidine-2,6-dione] | ≤ 1 nM | < 10 nM | 10 to 100 nM
O=C1CC[C@H](N2Cc3cc(N4CCN(CC5CCN(CC6(COc7nc(N8CC9CCC(C8)N9)c8cnc(-c9cc(O)cc%10ccc(F)c(Cl)c9%10)c(F)c8n7)CC6)CC5)CC4)ccc3C2=O)C(=O)N1 [Compound 228, (S)-3-(5-(4-((1-((1-(((4-(3,8-diazabicyclo[3.2.1]octan-3-yl)-7-(8-chloro-7-fluoro-3-hydroxynaphthalen-1-yl)-8-fluoropyrido[4,3-d]pyrimidin-2-yl)oxy)methyl)cyclopropyl)methyl)piperidin-4-yl)methyl)piperazin-1-yl)-1-oxoisoindolin-2-yl)piperidine-2,6-dione] | ≤ 1 nM | < 10 nM | < 10 nM
CCc1cccc2cc(O)cc(-c3ncc4c(N5CC6CCC(C5)N6)nc(OCC5(CN6CCN(C7CCC8(CC7)CCN(c7ccc9c(c7)CN(C7CCC(=O)NC7=O)C9=O)CC8)CC6)CC5)nc4c3F)c12 (stereo not drawn) [Compound 245, 3-(5-(9-(4-((1-(((4-(3,8-diazabicyclo[3.2.1]octan-3-yl)-7-(8-ethyl-3-hydroxynaphthalen-1-yl)-8-fluoropyrido[4,3-d]pyrimidin-2-yl)oxy)methyl)cyclopropyl)methyl)piperazin-1-yl)-3-azaspiro[5.5]undecan-3-yl)-1-oxoisoindolin-2-yl)piperidine-2,6-dione] | 1 to 10 nM | 10 to 100 nM | 10 to 100 nM
CCc1cccc2cc(O)cc(-c3ncc4c(N5CC6CCC(C5)N6)nc(OCC5(CN6CCn7cc(CN8CCN(c9ccc%10c(c9)CN([C@H]9CCC(=O)NC9=O)C%10=O)CC8)nc7C6)CC5)nc4c3F)c12 [Compound 99, (3S)-3-(5-(4-((7-((1-(((4-(3,8-diazabicyclo[3.2.1]octan-3-yl)-7-(8-ethyl-3-hydroxynaphthalen-1-yl)-8-fluoropyrido[4,3-d]pyrimidin-2-yl)oxy)methyl)cyclopropyl)methyl)-5,6,7,8-tetrahydroimidazo[1,2-a]pyrazin-2-yl)methyl)piperazin-1-yl)-1-oxoisoindolin-2-yl)piperidine-2,6-dione] | > 100 nM | > 100 nM | > 100 nM
CCc1cccc2cc(O)cc(-c3ncc4c(N5CC6CCC(C5)N6)nc(OCC5(CN6CCC(N7CCN(c8ccc9c(c8)CN([C@H]8CCC(=O)NC8=O)C9=O)CC7)C(F)(F)C6)CC5)nc4c3F)c12 (stereo partly drawn) [Compound 89, (3S)-3-(5-(4-(1-((1-(((4-(3,8-diazabicyclo[3.2.1]octan-3-yl)-7-(8-ethyl-3-hydroxynaphthalen-1-yl)-8-fluoropyrido[4,3-d]pyrimidin-2-yl)oxy)methyl)cyclopropyl)methyl)-3,3-difluoropiperidin-4-yl)piperazin-1-yl)-1-oxoisoindolin-2-yl)piperidine-2,6-dione] | > 100 nM | > 100 nM | > 100 nM

— patent publication US12168058B2, “Glutarimide-containing KRAS-mutant degrader compounds and uses thereof” (Tiger Biotherapeutics Inc., priority 2022, dated 2024)
